Patent publication US8088758B2, “17β-hydroxysteroid dehydrogenase type I inhibitors” (Abbott Products GmbH, priority 2003, dated 2012)

Target: T1, recombinant human 17β-hydroxysteroid dehydrogenase type 1 (Homo sapiens, UniProt P14061)
T1 construct: made in house; host or cells: Sf9 insect cells (baculovirus, Bac to Bac Expression System)
T1 sequence (P14061 1-328): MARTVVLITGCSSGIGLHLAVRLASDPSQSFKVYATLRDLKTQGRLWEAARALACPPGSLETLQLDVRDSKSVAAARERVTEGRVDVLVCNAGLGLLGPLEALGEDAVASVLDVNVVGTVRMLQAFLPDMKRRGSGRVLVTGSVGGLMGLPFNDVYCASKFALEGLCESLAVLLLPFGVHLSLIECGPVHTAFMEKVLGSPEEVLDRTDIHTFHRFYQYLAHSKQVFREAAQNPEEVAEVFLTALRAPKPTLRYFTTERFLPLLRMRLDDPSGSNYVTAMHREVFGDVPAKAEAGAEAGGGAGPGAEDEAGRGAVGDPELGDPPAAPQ
Experiment: Inhibition of recombinant human 17β-hydroxysteroid dehydrogenase type 1 (conversion of 3H-estrone to estradiol, HPLC)
Type: biochemical
Details: 30 nM 3H-estrone, 1 mM NADPH, 30 min at RT; for inhibition at 0.1 µM: inhibitor 100 nM, read-out: Inhibition of rec. 17β-HSD1 (% inhibition), 100 nM; for inhibition at 1 µM: inhibitor 1 μm, read-out: Inhibition of rec. 17β-HSD1 (% inhibition), 1 μm
Protocol: 1. Inhibition of the 17β-hydroxysteroid Dehydrogenase Type 1 Enzyme
17β-HSD1 Purification: Recombinant baculovirus was generated by the “Bac to Bac Expression System” (Invitrogen). Recombinant bacmid was transfected to Sf9 insect cells using “Cellfectin Reagent” (Invitrogen). 60 h later cells were harvested; the microsomal fraction was isolated as described by Puranen et al. 1994. Aliquots were stored frozen until determination of enzymatic activity.
Assay—Inhibition of Recombinant Human 17β-hydroxysteroid Dehydrogenase Type 1:
Recombinant protein (0.1 μg/ml) was incubated in 20 mM KH2PO4 pH 7.4 with 30 nM 3H-estrone and 1 mM NADPH for 30 min at RT, in the presence of potential inhibitors at concentrations of 1 μM or 0.1 μM. Inhibitor stock solutions were prepared in DMSO. Final concentration of DMSO was adjusted to 1% in all samples. The enzyme reaction was stopped by addition of 10% trichloroacetic acid (final concentration). Samples were centrifuged in a microtiter plate at 4000 rpm for 10 min. Supernatants were applied to reverse phase HPLC on a Waters Symmetry C18 column, equipped with a Waters Sentry Guard column. Isocratic HPLC runs were performed at RT at a flow rate of 1 ml/min of acetonitrile:water 48:52 as running solvent. Radioactivity was monitored in the eluate by a Packard Flow Scintillation Analyzer. Total radioactivity for estrone and estradiol were determined in each sample and percent conversion of estrone to estradiol was calculated according to the following formula:
Percent inhibition was calculated as follows: % inhibition=100−% conversion

Structure (SMILES) | inhibition at 0.1 µM [%] | inhibition at 1 µM [%]
C[C@]12CC[C@@H]3c4ccc(O)cc4CC[C@H]3[C@@H]1[C@H](CCCC(=O)N1CCOCC1)CC2=O [Example 1, 3-Hydroxy-15β-(4-morpholin-4-yl-4-oxo-butyl)-estra-1,3,5(10)-trien-17-one] | 49.9 | 80.2
C[C@]12CC[C@@H]3c4ccc(O)cc4CC[C@H]3[C@@H]1[C@H](CCCC(=O)NCc1ccccc1)CC2=O [Example 3A, N-Benzyl-4-(3-hydroxy-17-oxo-estra-1,3,5(10)-trien-15β-yl)-butyramide] | 51.6 | 84.1
COc1ccc2c(c1)CC[C@H]1[C@@H]3[C@H](CCCC(=O)NCc4ccccc4)CC(=O)[C@@]3(C)CC[C@H]21 [Example 3B, N-Benzyl-4-(3-methoxy-17-oxo-estra-1,3,5(10)-trien-15β-yl)-butyramide] | 77.4 | 82.1
CNC(=O)CCC[C@@H]1CC(=O)[C@@]2(C)CC[C@@H]3c4ccc(O)cc4CC[C@H]3[C@H]12 [Example 4A, 4-(3-Hydroxy-17-oxo-estra-1,3,5(10)-trien-15β-yl)-N-methyl-butyramide] | 47.1 | 66
CNC(=O)CCC[C@@H]1CC(=O)[C@@]2(C)CC[C@@H]3c4ccc(OC)cc4CC[C@H]3[C@H]12 [Example 4B, 4-(3-Methoxy-17-oxo-estra-1,3,5(10)-trien-15β-yl)-N-methyl-butyramide] | 30.5 | 60.8
COc1ccc2c(c1)CC[C@H]1[C@@H]3[C@H](CCCC(=O)NCc4ccco4)CC(=O)[C@@]3(C)CC[C@H]21 [Example 7] | 28.7 | 63.4
COc1ccc2c(c1)CCC1C2CC[C@]2(C)C(=O)C[C@@H](CCCC(=O)NCCc3ccc(O)cc3)C12 (stereo partly shown) [Example 22] | 27.3 | 57.8
COc1ccc2c(c1)CCC1C2CC[C@]2(C)C(=O)C[C@@H](CCCC(=O)NCCc3cccs3)C12 (stereo partly shown) [Example 29] | 29.6 | 69.3
COc1ccc2c(c1)CCC1C2CC[C@]2(C)C(=O)C[C@@H](CCCC(=O)NCCc3c[nH]c4c(C)cccc34)C12 (stereo partly shown) [Example 31] | 52.8 | 77.9
Cc1cccc2c(CCNC(=O)CCC[C@@H]3CC(=O)[C@@]4(C)CC[C@@H]5c6ccc(O)cc6CC[C@H]5[C@H]34)c[nH]c12 [Example 36, 4-(3-Hydroxy-17-oxo-estra-1,3,5(10)-trien-15β-yl)-N-[2-(7-methyl-1H-indol-3-yl)-ethyl]-butyramide] | 72.9 | 94.3
C[C@]12CC[C@@H]3c4ccc(O)cc4CC[C@H]3[C@@H]1[C@H](CCCC(=O)NCc1ccc(F)cc1F)CC2=O [Example 37, N-(2,4-Difluoro-benzyl)-4-(3-hydroxy-17-oxo-estra-1,3,5(10)-trien-15β-yl)-butyramide] | 47.4 | 87.2
CN(Cc1ccccc1)C(=O)CCC[C@@H]1CC(=O)[C@@]2(C)CC[C@@H]3c4ccc(O)cc4CC[C@H]3[C@H]12 [Example 38, N-Benzyl-4-(3-hydroxy-17-oxo-estra-1,3,5(10)-trien-15β-yl)-N-methyl-butyramide] | 60.5 | 89.5
C[C@]12CC[C@@H]3c4ccc(O)cc4CC[C@H]3[C@@H]1[C@@H](CCCC(=O)NCc1ccccc1)CC2=O [Example 39, N-Benzyl-4-(3-hydroxy-17-oxo-estra-1,3,5(10)-trien-15α-yl)-butyramide] | 41.8 | 82.4
C[C@]12CC[C@@H]3c4ccc(O)cc4CC[C@H]3[C@@H]1[C@@H](CCCC(=O)N1CCOCC1)CC2=O [Example 40, 3-Hydroxy-15α-(4-morpholin-4-yl-4-oxo-butyl)-estra-1,3,5(10)-trien-17-one] | 32.3 | 79.4
COc1ccc2c(c1)CCC1C2CC[C@]2(C)C(=O)C[C@H](C(=O)NCc3nc4ccccc4[nH]3)C12 (stereo partly shown) [Example 58] | 25 | 65.3
COc1ccc2c(c1)CCC1C2CC[C@]2(C)C(=O)C[C@H](C(=O)Nc3ncc(C)s3)C12 (stereo partly shown) [Example 105] | 33.8 | 81
COc1ccc2c(c1)CCC1C2CC[C@]2(C)C(=O)C[C@H](C(=O)N(C)Cc3cccc4ccccc34)C12 (stereo partly shown) [Example 152] | 25.6 | 41.4
COc1ccc2c(c1)CC[C@H]1[C@@H]3[C@H](CCC(=O)NC4CCCCC4)CC(=O)[C@@]3(C)CC[C@H]21 [Example 310] | 67.9 | 91.7

Structure (SMILES) | inhibition at 0.1 µM [%] | inhibition at 1 µM [%]
COc1ccc2c(c1)CC[C@H]1[C@@H]3[C@H](CCC(=O)N(C)C4CCCCC4)CC(=O)[C@@]3(C)CC[C@H]21 [Example 313] | 62.6 | 93
CCOC(=O)Cc1csc(NC(=O)CC[C@@H]2CC(=O)[C@@]3(C)CC[C@@H]4c5ccc(OC)cc5CC[C@H]4[C@H]23)n1 [Example 314] | 33.6 | 62.1
COc1ccc2c(c1)CC[C@H]1[C@@H]3[C@H](CCC(=O)NCc4ccc5c(c4)OCO5)CC(=O)[C@@]3(C)CC[C@H]21 [Example 315] | 29 | 74.4
COc1ccc2c(c1)CC[C@H]1[C@@H]3[C@H](CCC(=O)N4CCOCC4)CC(=O)[C@@]3(C)CC[C@H]21 [Example 316] | 25.3 | 74.5
COc1ccc2c(c1)CC[C@H]1[C@@H]3[C@H](CCC(=O)NCc4cccc(F)c4)CC(=O)[C@@]3(C)CC[C@H]21 [Example 322] | 45.7 | 66.3
COc1ccc2c(c1)CC[C@H]1[C@@H]3[C@H](CCC(=O)NCc4ccc(Cl)cc4)CC(=O)[C@@]3(C)CC[C@H]21 [Example 323] | 28.5 | 72.7
COc1ccc2c(c1)CC[C@H]1[C@@H]3[C@H](CCC(=O)NCCc4ccc(O)cc4)CC(=O)[C@@]3(C)CC[C@H]21 [Example 324] | 57.9 | 91.5
COc1ccc2c(c1)CC[C@H]1[C@@H]3[C@H](CCC(=O)NCCc4cccs4)CC(=O)[C@@]3(C)CC[C@H]21 [Example 327] | 28.7 | 77
COc1ccc2c(c1)CC[C@H]1[C@@H]3[C@H](CCC(=O)Nc4ncc(C)s4)CC(=O)[C@@]3(C)CC[C@H]21 [Example 329] | 78.9 | 96.2
COc1ccc2c(c1)CC[C@H]1[C@@H]3[C@H](CCCCC(=O)NC4CC4)CC(=O)[C@@]3(C)CC[C@H]21 [Example 330] | 25.2 | 75.9
COc1ccc2c(c1)CC[C@H]1[C@@H]3[C@H](CCCCC(=O)NC4CCCCC4)CC(=O)[C@@]3(C)CC[C@H]21 [Example 331] | 37 | 88
COc1ccc2c(c1)CC[C@H]1[C@@H]3[C@H](CCCCC(=O)NCc4ccco4)CC(=O)[C@@]3(C)CC[C@H]21 [Example 333] | 47.9 | 91
COc1ccc2c(c1)CC[C@H]1[C@@H]3[C@H](CCCCC(=O)NCc4ccc5c(c4)OCO5)CC(=O)[C@@]3(C)CC[C@H]21 [Example 335] | 59 | 90.5
COc1ccc2c(c1)CC[C@H]1[C@@H]3[C@H](CCCCC(=O)NCc4cccnc4)CC(=O)[C@@]3(C)CC[C@H]21 [Example 338] | 28.7 | 84.6
COc1ccc2c(c1)CC[C@H]1[C@@H]3[C@H](CCCCC(=O)NCc4ccncc4)CC(=O)[C@@]3(C)CC[C@H]21 [Example 339] | 25.9 | 82.9
COc1ccc2c(c1)CC[C@H]1[C@@H]3[C@H](CCCCC(=O)NCc4ccccc4)CC(=O)[C@@]3(C)CC[C@H]21 [Example 340] | 51.4 | 91.9
COc1ccc2c(c1)CC[C@H]1[C@@H]3[C@H](CCCCC(=O)NCc4ccccc4OC)CC(=O)[C@@]3(C)CC[C@H]21 [Example 341] | 38.1 | 88
